The values below come from US10202360B2 (CELGENE QUANTICEL RESEARCH, INC., priority 2016, dated 2019).

The assay addresses CREBBP (Homo sapiens (Human), UniProt Q92793). Kind of assay: In vitro enzyme inhibition assay - CREBBP inhibition (AlphaScreen, biotinylated H4-tetraacetyl peptide). Format: binding. As to conditions: Table 28; AlphaScreen, H4-tetraacetyl peptide. In short, it runs like this: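 His-tagged CREBBP expressed in E. coli (50 nM final) incubated with biotinylated H4K5/8/12/16(Ac) peptide (20 nM final) in HEPES pH 7.3 buffer, 0.4% DMSO, 20 min at room temperature.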

As usually defined, the IC50 is the concentration that inhibits the measured activity by half. A lower IC50 goes with higher potency.

A value given as a limit tells only on which side of the number the result lay.

Sequence of CREBBP (Q92793 1081-1197): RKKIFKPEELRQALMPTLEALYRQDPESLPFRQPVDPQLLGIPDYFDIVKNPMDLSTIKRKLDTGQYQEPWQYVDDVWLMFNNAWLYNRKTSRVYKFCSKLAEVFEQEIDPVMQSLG

As for `CCS(=O)(=O)Nc1cc(-c2ccc(=O)n(C)c2)nc(-c2ccc(C)cc2OC)n1` [Example 194, Ethanesulfonic acid [2-(2-methoxy-4-methyl-phenyl)-6-(1-methyl-6-oxo-1,6-dihydro-pyridin-3-yl)-pyrimidin-4-yl]-amide], the IC50 lay in the range of 500 to 5000 nM. The figure for `CCS(=O)(=O)Nc1cc(-c2ccc(=O)n(C)c2)nc(-c2cc(C)ccc2OC)n1` [Example 195, Ethanesulfonic acid [2-(2-methoxy-5-methyl-phenyl)-6-(1-methyl-6-oxo-1,6-dihydro-pyridin-3-yl)-pyrimidin-4-yl]-amide] is 500 to 5000 nM; for `CCCS(=O)(=O)Nc1cc(-c2ccc(=O)n(C)c2)nc(-c2ccccc2OC)n1` [Example 196, Propane-1-sulfonic acid [2-(2-methoxy-phenyl)-6-(1-methyl-6-oxo-1,6-dihydro-pyridin-3-yl)-pyrimidin-4-yl]-amide] it is 500 to 5000 nM; for `CCCCS(=O)(=O)Nc1cc(-c2ccc(=O)n(C)c2)nc(-c2ccccc2OC)n1` [Example 197, Butane-1-sulfonic acid [2-(2-methoxy-phenyl)-6-(1-methyl-6-oxo-1,6-dihydro-pyridin-3-yl)-pyrimidin-4-yl]-amide] it is < 500 nM. On to `CCS(=O)(=O)Nc1cc(-c2ccc(=O)n(C)c2)nc(-c2ccccc2C#N)n1` [Example 198, Ethanesulfonic acid [2-(2-cyano-phenyl)-6-(1-methyl-6-oxo-1,6-dihydro-pyridin-3-yl)-pyrimidin-4-yl]-amide], for which the IC50 was < 500 nM. The figure for `CCS(=O)(=O)Nc1cc(-c2ccc(=O)n(C)c2)nc(-c2ccccc2OC)n1` [Example 199, Ethanesulfonic acid [2-(2-methoxy-phenyl)-6-(1-methyl-6-oxo-1,6-dihydro-pyridin-3-yl)-pyrimidin-4-yl]-amide] is 500 to 5000 nM; for `CCS(=O)(=O)Nc1nc(OC(C)C)nc(-c2ccc(=O)n(C)c2)n1` [Example 200, Ethanesulfonic acid [4-isopropoxy-6-(1-methyl-6-oxo-1,6-dihydro-pyridin-3-yl)-[1,3,5]triazin-2-yl]-amide] it is 500 to 5000 nM; for `CCCS(=O)(=O)Nc1nc(OC(C)C)nc(-c2ccc(=O)n(C)c2)n1` [Example 201, Propane-1-sulfonic acid [4-isopropoxy-6-(1-methyl-6-oxo-1,6-dihydro-pyridin-3-yl)-[1,3,5]triazin-2-yl]-amide] it is 500 to 5000 nM. For `CC[C@H](C)S(=O)(=O)Nc1cc(-c2ccc(=O)n(C)c2)nc(Oc2c(C)cccc2F)n1` [Example 202, (S)-N-(2-(2-fluoro-6-methylphenoxy)-6-(1-methyl-6-oxo-1,6-dihydropyridin-3-yl)pyrimidin-4-yl)butane-2-sulfonamide], the half-maximal inhibitory concentration (IC50) is < 500 nM.

Consider `CC[C@@H](C)S(=O)(=O)Nc1cc(-c2ccc(=O)n(C)c2)nc(Oc2c(C)cccc2F)n1` [Example 203, (R)-N-(2-(2-fluoro-6-methylphenoxy)-6-(1-methyl-6-oxo-1,6-dihydropyridin-3-yl)pyrimidin-4-yl)butane-2-sulfonamide], for which the 50% inhibitory concentration (IC50) was < 500 nM. Then `CC[C@@H](C)S(=O)(=O)Nc1cc(-c2ccc(=O)n(C)c2)nc(Oc2c(C)cccc2Cl)n1` [Example 204, Butane-(2R)-sulfonic acid [2-(2-chloro-6-methyl-phenoxy)-6-(1-methyl-6-oxo-1,6-dihydro-pyridin-3-yl)-pyrimidin-4-yl]-amide], with < 500 nM; and `CC[C@H](C)S(=O)(=O)Nc1cc(-c2ccc(=O)n(C)c2)nc(Oc2c(C)cccc2Cl)n1` [Example 205, Butane-(2S)-sulfonic acid [2-(2-chloro-6-mehtyl-phenoxy)-6-(1-methyl-6-oxo-1,6-dihydro-pyridin-3-yl)-pyrimidin-4-yl]-amide], with < 500 nM. With `CC[C@H](C)S(=O)(=O)Nc1cc(-c2ccc(=O)n(C)c2)nc(Oc2c(F)cccc2Cl)n1` [Example 206, Butane-(2S)-sulfonic acid [2-(2-chloro-6-fluoro-phenoxy)-6-(1-methyl-6-oxo-1,6-dihydro-pyridin-3-yl)-pyrimidin-4-yl]-amide], the IC50 is < 500 nM. Regarding `CC[C@@H](C)S(=O)(=O)Nc1cc(-c2ccc(=O)n(C)c2)nc(Oc2c(F)cccc2Cl)n1` [Example 207, Butane-(2R)-sulfonic acid [2-(2-chloro-6-fluoro-phenoxy)-6-(1-methyl-6-oxo-1,6-dihydro-pyridin-3-yl)-pyrimidin-4-yl]-amide], the concentration for half-maximal inhibition (IC50) is < 500 nM. The figure for `CC[C@@H](C)S(=O)(=O)Nc1cc(-c2ccc(=O)n(C)c2)nc(Oc2c(F)cccc2OC)n1` [Example 208, Butane-(2R)-sulfonic acid [2-(2-fluoro-6-methoxy-phenoxy)-6-(1-methyl-6-oxo-1,6-dihydro-pyridin-3-yl)-pyrimidin-4-yl]-amide] is < 500 nM. The figure for `CC[C@H](C)S(=O)(=O)Nc1cc(-c2ccc(=O)n(C)c2)nc(Oc2c(F)cccc2OC)n1` [Example 209, Butane-(2S)-sulfonic acid [2-(2-fluoro-6-methoxy-phenoxy)-6-(1-methyl-6-oxo-1,6-dihydro-pyridin-3-yl)-pyrimidin-4-yl]-amide] is < 500 nM.

As to `CC[C@@H](C)S(=O)(=O)Nc1cc(-c2ccc(=O)n(C)c2)nc(Oc2c(F)cccc2C2CC2)n1` [Example 210, Butane-(2R)-sulfonic acid [2-(2-cyclopropyl-6-fluoro-phenoxy)-6-(1-methyl-6-oxo-1,6-dihydro-pyridin-3-yl)-pyrimidin-4-yl]-amide], the IC50 is < 500 nM. The figure for `CC[C@H](C)S(=O)(=O)Nc1cc(-c2ccc(=O)n(C)c2)nc(Oc2c(C)cccc2C2CC2)n1` [Example 211, Butane-(2S)-sulfonic acid [2-(2-cylcopropyl-6-methyl-phenoxy)-6-(1-methyl-6-oxo-1,6-dihydro-pyridin-3-yl)-pyrimidin-4-yl]-amide] is < 500 nM; for `CC[C@@H](C)S(=O)(=O)Nc1cc(-c2ccc(=O)n(C)c2)nc(Oc2c(C)ccc(F)c2F)n1` [Example 212, (2R)-Butane-2-sulfonic acid [2-(2,3-difluoro-6-methyl-phenoxy)-6-(1-methyl-6-oxo-1,6-dihydro-pyridin-3-yl)-pyrimidin-4-yl]-amide] it is < 500 nM; for `CC[C@H](C)S(=O)(=O)Nc1cc(-c2ccc(=O)n(C)c2)nc(Oc2c(C)ccc(F)c2F)n1` [Example 213, (2S)-Butane-2-sulfonic acid [2-(2,3-difluoro-6-methyl-phenoxy)-6-(1-methyl-6-oxo-1,6-dihydro-pyridin-3-yl)-pyrimidin-4-yl]-amide] it is < 500 nM.

In the case of `CCc1cccc(F)c1Oc1nc(NS(=O)(=O)[C@H](C)CC)cc(-c2ccc(=O)n(C)c2)n1` [Example 214, (2R)-Butane-2-sulfonic acid [2-(2-ethyl-6-fluoro-phenoxy)-6-(1-methyl-6-oxo-1,6-dihydro-pyridin-3-yl)-pyrimidin-4-yl]-amide], the IC50 is < 500 nM. For the molecule `CCc1cccc(F)c1Oc1nc(NS(=O)(=O)[C@@H](C)CC)cc(-c2ccc(=O)n(C)c2)n1` [Example 215, (2S)-Butane-2-sulfonic acid [2-(2-ethyl-6-fluoro-phenoxy)-6-(1-methyl-6-oxo-1,6-dihydro-pyridin-3-yl)-pyrimidin-4-yl]-amide], the concentration for half-maximal inhibition (IC50) is < 500 nM. The figure for `CCC[C@H](C)S(=O)(=O)Nc1cc(-c2ccc(=O)n(C)c2)nc(Oc2c(C)cccc2F)n1` [Example 216, (2S)-Pentane-2-sulfonic acid [2-(2-fluoro-6-methyl-phenoxy)-6-(1-methyl-6-oxo-1,6-dihydro-pyridin-3-yl)-pyrimidin-4-yl]-amide] is < 500 nM; for `CCC[C@H](C)S(=O)(=O)Nc1cc(-c2ccc(=O)n(C)c2)nc(Oc2c(C)cccc2Cl)n1` [Example 217, (2S)-Pentane-2-sulfonic acid [2-(2-chloro-6-methyl-phenoxy)-6-(1-methyl-6-oxo-1,6-dihydro-pyridin-3-yl)-pyrimidin-4-yl]-amide] it is < 500 nM; for `CCC[C@H](C)S(=O)(=O)Nc1cc(-c2ccc(=O)n(C)c2)nc(Oc2c(F)cccc2Cl)n1` [Example 218, (2S)-Pentane-2-sulfonic acid [2-(2-chloro-6-fluoro-phenoxy)-6-(1-methyl-6-oxo-1,6-dihydro-pyridin-3-yl)-pyrimidin-4-yl]-amide] it is < 500 nM.

For the molecule `CCC[C@@H](C)S(=O)(=O)Nc1cc(-c2ccc(=O)n(C)c2)nc(Oc2c(C)cccc2F)n1` [Example 219, (2R)-Pentane-2-sulfonic acid [2-(2-fluoro-6-methyl-phenoxy)-6-(1-methyl-6-oxo-1,6-dihydro-pyridin-3-yl)-pyrimidin-4-yl]-amide], the IC50 was < 500 nM. Then `CCC[C@@H](C)S(=O)(=O)Nc1cc(-c2ccc(=O)n(C)c2)nc(Oc2c(F)cccc2Cl)n1` [Example 220, (2R)-Pentane-2-sulfonic acid [2-(2-chloro-6-fluoro-phenoxy)-6-(1-methyl-6-oxo-1,6-dihydro-pyridin-3-yl)-pyrimidin-4-yl]-amide], with < 500 nM; and `CCC[C@@H](C)S(=O)(=O)Nc1cc(-c2ccc(=O)n(C)c2)nc(Oc2c(C)cccc2Cl)n1` [Example 221, (2R)-Pentane-2-sulfonic acid [2-(2-chloro-6-methyl-phenoxy)-6-(1-methyl-6-oxo-1,6-dihydro-pyridin-3-yl)-pyrimidin-4-yl]-amide], with < 500 nM; and `CC[C@H](C)S(=O)(=O)Nc1cc(-c2cc(C)c(=O)n(C)c2)nc(Oc2c(C)cccc2Cl)n1` [Example 222, (S)-N-(2-(2-chloro-6-methylphenoxy)-6-(1,5-dimethyl-6-oxo-1,6-dihydropyridin-3-yl)pyrimidin-4-yl)butane-2-sulfonamide], with < 500 nM. The figure for `CCC[C@H](C)S(=O)(=O)Nc1cc(-c2cc(C)c(=O)n(C)c2)nc(Oc2c(C)cccc2Cl)n1` [Example 223, (S)-N-(2-(2-chloro-6-methylphenoxy)-6-(1,5-dimethyl-6-oxo-1,6-dihydropyridin-3-yl)pyrimidin-4-yl)pentane-2-sulfonamide] is < 500 nM.
